Experimental data as given in patent US5821244A, “Condensed nitrogen heterocycles and their use as pesticides, fungicides and antimycotics” (Hoechst Schering AgrEvo GmbH, priority 1993, dated 1998).

What was measured:
[1] = tested on: Plasmopara viticola; assay: Fungicide test, Plasmopara viticola on grapevine seedlings; type: in vivo; conditions: 500 mg of active substance/l spray mixture; incubation 7 days
Protocol: Approximately 6 weeks after sowing, grapevine seedlings "Riesling/Ehrenfelder" were treated to runoff point using aqueous suspensions of the compounds according to the invention. After the spray coating had dried on, the plants were inoculated with a zoosporangia suspension of Plasmopara viticola and the dripping wet plants were placed for 4 to 5 hours into a controlled-environment cabinet at 23° C. at a relative atmospheric humidity of 80-90%.
After an incubation time of 7 days in the greenhouse, the plants were returned overnight into the controlled-environment cabinet to stimulate sporulation of the fungus. The disease was then evaluated. The disease level was expressed in % of diseased leaf area in comparison with the untreated, 100% infected control plants.

[2] = tested on: eggs of the large milkweed bug (Oncopeltus fasciatus); assay: Ovicidal activity, eggs of large milkweed bug on paper filter disks; type: in vivo; conditions: 168 h, after 7 days
Protocol: Paper filter disks onto which eggs of the large milkweed bug (Oncopeltus fasciatus) have been placed are treated with in each case 0.5 ml of aqueous dilution of the test formulation. After the coating has dried on, the Petri dish is sealed, and the inside is kept at maximum atmospheric humidity. After the dishes have been kept at room temperature, the ovicidal activity was determined after 7 days.

[3] = tested on: tobacco hornworm (Manduca sexta); assay: Oral application to larvae (L4) of tobacco hornworm; type: in vivo
Protocol: Active substances which were dissolved in acetone were applied orally to butterfly larvae (L4) of tobacco hornworm (Manduca sexta). After active substance of Example No. 3 or 8 (2×10^-4 g of a.i./animal) had been applied, a mortality of 100% was found after 48 hours.

[4] = tested on: Botrytis cinerea; assay: Fungicide test, Botrytis cinerea on broad beans; type: in vivo; conditions: 500 mg of active substance/l spray mixture; approximately 1 week after inoculation
Protocol: Broad beans cv. "Herz Freya" or "[…]" approximately 14 days old, were treated to runoff point with aqueous suspensions of the compounds according to the invention. After the spray coating had dried off, the plants were inoculated with a spore suspension (1.5 million spores/ml) of Botrytis cinerea. The plants were grown on in a controlled-environment cabinet at 20°-22° C. under relative atmospheric humidity of approximately 99%. […] The experiments were evaluated approximately 1 week after inoculation. The disease level of the plants was scored in percent relative to untreated, 100% infected control plants.

[5] = tested on: eggs of Diabrotica undecimpunctata; assay: Activity against freshly deposited eggs of southern corn rootworm; type: in vivo; conditions: 120 h, after 5 days
Protocol: Freshly deposited eggs of Diabrotica undecimpunctata (southern corn rootworm) were sprayed, on paper filters, with in each case 2 ml of an aqueous suspension of wettable powders (active substance content 250 ppm) and were subsequently observed at room temperature. After 5 days, the eggs were examined for mortality.

[6] = tested on: two-spotted spider mite (Tetranychus urticae); assay: Acaricide test, two-spotted spider mite on bean plants; type: in vivo; conditions: 168 h, after 7 days, read-out: mortality rate of the mites
Description: Bean plants (Phaseolus v.) which were heavily infested with the two-spotted spider mite (Tetranychus urticae, full population) were sprayed with the aqueous dilution of a concentrate of wettable powder, containing 250 ppm of the active substance in question. The mortality of the mites was checked after 7 days.

[7] = tested on: whitefly (Trialeurodes vaporariorum); assay: Insecticide test, whitefly on bean plants; type: in vivo; conditions: 336 h, after 14 days
Description: Bean plants which were heavily populated with whitefly (Trialeurodes vaporariorum) were sprayed to the beginning of the run-off point using aqueous suspensions of concentrates of wettable powders (250 ppm active substance content). After the plants had been placed in the greenhouse, they were subjected to microscope checks after 14 days, resulting in a 100% mortality in the case of each preparation containing the active substances of Example Nos. 4, 5, 10, 19, 20, 24, 27, 28, 130 and 139.

[8] = tested on: tropical cattle ticks (Boophilus microplus); assay: In vitro test on tropical cattle ticks, inhibition of oviposition; type: in vivo; conditions: Rhipicephalus microplus, 336 h, immersion five minutes, two weeks after treatment
Protocol: In vitro test on tropical cattle ticks (Boophilus microplus) The following experimental set-up allowed the effectiveness of the compounds according to the invention against ticks to be confirmed.
To produce a suitable preparation of active substance, the active substances were dissolved to 10% strength (w/v) in a mixture composed of dimethylformamide (85 g), nonylphenolpolyglycol ether (3 g) and ethoxylated castor oil (7 g), and the resulting emulsion concentrates were diluted with water to a test concentration of 500 ppm.
Batches of ten females of the tropical tick Boophilus microplus which had sucked themselves full were immersed for five minutes in these active substance dilutions. The ticks were subsequently dried on paper filters and then attached, with their backs, to an adhesive film-in order to deposit eggs. The ticks were kept in an incubator at 28° C. at an atmospheric humidity of 90%.
As a control, the female ticks were immersed just in water. Two weeks after the treatment, the inhibition of oviposition was used to determine the effectiveness. 100% means that no ticks have deposited eggs, 0 that all ticks have deposited eggs.

[9] = tested on: Spodoptera littoralis; assay: Insecticide test, Egyptian cotton leafworm larvae (L3); type: in vivo; conditions: 120 h, after 5 days
Protocol: Spodoptera littoralis (Egyptian cotton leafworm) larvae in the L3 stage were introduced into Petri dishes filled with nutrient medium, and these dishes together with the larvae were sprayed with 2 ml of an aqueous suspension of wettable powder containing 250 ppm (Corresponding to 6000 l of water/ha). After the spray coating had dried on, the Petri dishes were sealed and stored for 5 days at 21° C. After 5 days, the compound of Example No. 28 had caused a mortality of the Spodoptera larvae of 100%.

[10] = tested on: Phytophthora infestans; type: in vivo; conditions: 500 mg of active substance/l spray mixture; approximately 1 week after inoculation
[11] = tested on: Leptosphaeria nodorum; assay: Fungicide test, Leptosphaeria nodorum on wheat plants; type: in vivo; conditions: 500 mg of active substance/l spray mixture
Protocol: Wheat plants cv. "Jubilar" in the 2-leaf stage were wetted to runoff point using aqueous suspensions of the preparations according to the invention. […] The plants were grown on in the greenhouse at a relative atmospheric humidity of approximately 90% until the symptoms became visible. The disease level was determined in % of diseased leaf area in comparison with the untreated, 100% infected control plants.

[12] = tested on: Pyrenophora teres; assay: Fungicide test, Pyrenophora teres on barley plants; type: in vivo; conditions: 500 mg of active substance/l spray mixture; approximately 1 week after inoculation
Protocol: Barley plants cv. "Igri" in the 2-leaf stage were wetted to runoff point with an aqueous suspension of the compounds according to the invention. […] The infected plants were subsequently grown on in the greenhouse at 25° C. at a relative atmospheric humidity of 80%. The disease level was evaluated approximately 1 week after inoculation. The disease level was determined in % of diseased leaf area in comparison with untreated, 100% infected control plants.

[13] = tested on: Erysiphe graminis; assay: Fungicide test, Erysiphe graminis (powdery mildew) on barley plants; type: in vivo, Erysiphe graminis f. sp. hordei; conditions: 500 mg of active substance/l spray mixture; applied 24 hours after inoculation; 10 days
Protocol: Barley plants in the 3-leaf stage were inoculated with large amounts of conidia of powdery mildew of barley (Erysiphe graminis f. sp. hordei) and placed in a greenhouse at 20° C. and a relative atmospheric humidity of 90 to 95%. 24 hours after the inoculation, the plants were wetted uniformly with the abovementioned compounds. After an incubation time of 10 days, the plants were examined for the occurrence of powdery mildew of barley. The disease level was determined in % of diseased leaf area based on untreated, 100% infected control plants.

| SMILES | mortality at 250 ppm [2] | disease suppression [4] | mortality at 250 ppm [6] | mortality at 250 ppm [7] | other results |
| --- | --- | --- | --- | --- | --- |
| CC(C)(C)C1CCC(Nc2ccnc3ccccc23)CC1 (stereo not drawn) [Compound 3] | 100% | suppress disease completely |  |  | disease suppression [1]: suppress disease completely; mortality at 0.2 mg ([3]; po, 48 h): 100%; mortality at 250 ppm [5]: 100% |
| CC(C)(C)C1CCC(Oc2ccnc3ccccc23)CC1 (stereo not drawn) [Compound 4] |  |  | 100% | 100% | mortality at 250 ppm [5]: 100% |
| CC(C)(C)[C@H]1CC[C@@H](Nc2ccnc3c(F)cccc23)CC1 [Compound 5] |  |  |  | 100% |  |
| CC(C)(C)[C@H]1CC[C@@H](Nc2ccnc3cc(Cl)ccc23)CC1 [Compound 7] |  | suppress disease completely |  |  | disease suppression [1]: suppress disease completely |
| CC(C)(C)[C@H]1CC[C@@H](Nc2ccnc3cc(C(F)(F)F)ccc23)CC1 [Compound 8] |  |  |  |  | mortality at 0.2 mg ([3]; oral, 2×10^-4 g of a.i./animal, after 48 hours): 100% |
| CCCC[C@H]1CC[C@@H](Oc2ccnc3ccccc23)CC1 [Compound 10] | 100% |  | 100% | 100% |  |
| CCC(C)(C)[C@H]1CC[C@@H](Oc2ccnc3ccccc23)CC1 [Compound 14] |  |  |  |  | inhibition at 500 ppm [8]: 100% |
| CC(C)(C)CC(C)(C)C1CCC(Nc2ccnc3ccccc23)CC1 (stereo not drawn) [Compound 19] | 100% | suppress disease completely | 100% | 100% | disease suppression [1]: suppress disease completely |
| CC(C)(C)CC(C)(C)[C@H]1CC[C@@H](Oc2ccnc3ccccc23)CC1 [Compound 20] |  |  | 100% | 100% | inhibition at 500 ppm [8]: 100% |
| c1ccc2c(NC3CCC(C4CCCCC4)CC3)ccnc2c1 (stereo not drawn) [Compound 23] | 100% | suppress disease completely | 100% |  |  |
| c1ccc2c(O[C@H]3CC[C@@H](C4CCCCC4)CC3)ccnc2c1 [Compound 24, 4-(4-Cyclohexylcyclohexyloxy)quinoline] |  |  | 100% | 100% |  |
| c1ccc([C@H]2CC[C@@H](Nc3ccnc4ccccc34)CC2)cc1 [Compound 25, 4-(4-Phenylcyclohexylamino)quinoline] |  | suppress disease completely |  |  | disease suppression [1]: suppress disease completely |
| c1ccc([C@H]2CC[C@H](Nc3ccnc4ccccc34)CC2)cc1 [Compound 26, 4-(4-Phenylcyclohexylamino)quinoline] |  | suppress disease completely |  |  | disease suppression [1]: suppress disease completely |
| c1ccc([C@H]2CC[C@@H](Oc3ccnc4ccccc34)CC2)cc1 [Compound 27] | 100% |  | 100% | 100% | mortality at 250 ppm [5]: 100%; inhibition at 500 ppm [8]: 100% |
| Fc1cccc2c(N[C@H]3CC[C@@H](c4ccccc4)CC3)ccnc12 [Compound 28] |  |  |  | 100% | mortality at 250 ppm [9]: 100%; inhibition at 500 ppm [8]: 100% |
| CCOc1ccc([C@H]2CC[C@@H](Nc3ccnc4ccccc34)CC2)cc1 [Compound 45] | 100% | suppress disease completely |  |  | disease suppression [10]: suppress disease completely |
| Cc1cc(N[C@H]2CC[C@@H](C(C)(C)CC(C)(C)C)CC2)c2ccccc2n1 [Compound 80] |  | suppress disease completely |  |  |  |
| CCC(C)(C)[C@H]1CC[C@@H](Nc2ccnc3cccnc23)CC1 [Compound 130] | 100% |  | 100% | 100% | disease suppression [1]: suppress disease completely; mortality at 250 ppm [5]: 100%; disease suppression [11]: suppress disease completely |
| CC(C)(C)CC(C)(C)[C@H]1CC[C@@H](Oc2ccnc3cccnc23)CC1 [Compound 133] |  |  | 100% |  |  |
| c1ccc([C@H]2CC[C@@H](Oc3ccnc4cccnc34)CC2)cc1 [Compound 139] | 100% |  | 100% | 100% | disease suppression [12]: suppress disease completely; disease suppression [13]: suppress disease completely; mortality at 250 ppm [5]: 100% |
| c1ccc([C@H]2CC[C@@H](Nc3ccnc4ncccc34)CC2)cc1 [Compound 208] | 100% |  |  |  |  |
| Cc1ccc2c(NC3CCC(C(C)(C)CC(C)(C)C)CC3)ccnc2n1 (stereo not drawn) [Compound 215] | 100% |  |  |  |  |
| CCC(C)(C)[C@H]1CC[C@@H](Nc2ncnc3cccnc23)CC1 [Compound 232] |  |  |  |  | disease suppression [1]: suppress disease completely; mortality at 250 ppm [5]: 100% |
| c1ccc([C@H]2CC[C@@H](Nc3ncnc4ncccc34)CC2)cc1 [Compound 280] | 100% |  |  |  |  |
